This is an account of results in patent US10201610B2, “Interference peptides and use thereof” (The University of Western Australia, priority 2014, dated 2019).

The IC50 is the midpoint of a concentration-inhibition curve.

Where two headings read alike, the source gives them in different places. Ends that are not written are not given here.

One assay relates to SUM149PT cells. Description: cells. Type of assay: cell-based, human. To be noted: for activity / IC50 as compared with the wt iPep624: Cell Titer Glo. The source says: The EN1-iPeps and iPep controls were first tested in SUM149PT cells carrying high EN1 expression. Cells were first treated with a full-length 29-mer peptide (iPep624) comprising the N-terminal, less conserved amino acid sequences, the hexamotif, and the C-terminal tail. As a control, the inventors generated the iPep624ΔHEX in which the hexamotif was mutated from the wild type (wt) WPAWVY (SEQ ID NO: 13) to the GAAGAG (SEQ ID NO: 15) sequence. These mutations were expected to dramatically abolish the activity of the peptide. Both peptides were included in the culture medium of the basal cancer cells in increasing (0-100 μM) concentrations and incubated for 8 hours at 37° C. Treated cells were first analyzed using the Cell Titer Glo assay, which monitors metabolic viability. […] This calculated value of IC50 is in the range of concentrations observed with other peptides delivered with CPPs.
(§1) All peptides were synthetized at the UNC High-Throughput Peptide Synthesis and Array Facility at UNC. Taxol, Rotenone and Halofuginone (Sigma-Aldrich, St Louis, Mo.) were dissolved in DMSO. A total of […] or 1×10^3 breast cells for peptide and drug treatment respectively, were seeded in 96-well plates. Cells were exposed for 8 hours to the peptide and 48 to 72 hours for drug treatment. The cell viability after peptide/drug treatment was assayed with the Cell Titer Glo (CTG) assay (Promega, Madison, Wis., USA).
(Cellular ATP, detected with luciferase, serves as a proxy for viable cell number.)

Assay [1] has as its system SUM149PT cells overexpressing the EN1 cDNA (SUM149PT-EN1). Description: Cell Titer Glo cell viability assay in SUM149PT cells overexpressing the EN1 cDNA. To be noted: Homo sapiens. In kind it is cell-based, human. The protocol:
(§2) In the neural system it has been proposed that EN1 protects neurons from mitochondrial complex I insults. Likewise, the inventors investigated whether EN1 could play a similar role in the basal-like breast cancer cell lines. The EN1 cDNA was overexpressed in SUM149PT cells using a lentiviral vector, and the transduced cells were treated with increasing concentrations of rotenone, a mitochondrial complex I toxin, and taxol, a […].
(§3) Plasmids expressing the EN1 cDNA (Genecopoeia, vector EX-T1021-Lv07) or EN1 shRNAs (Open Biosystems, pLKO-EN1) were transfected with Gagpol-, VSVG-, and RSV-REV-coding plasmids in HEK 293T cells using Lipofectamine and Plus Reagent cationic lipids (Invitrogen, Carlsbad, Calif.) and transduction of breast cells was performed as described in Beltran, A. S. et al. Breast Cancer Res 13, R94 (2011).
as §1

Assay [2] concerns SUM149PT control (EGFP) transduced cells (SUM149PT-Control). Description: Cell Titer Glo cell viability assay in control transduced SUM149PT cells. To be noted: Homo sapiens. Type of assay: cell-based. How it is done:
as §2, §3, §1

In assay [3] the test system is panel of breast cancer cell lines. Description: Cell Titer Glo cell viability assay, whole panel of breast cancer cell lines. In kind it is cell-based. Particulars: maximum tested concentrations (100 μM), 8 hours. The protocol:
To test the specificity of the EN1-iPep in cell lines expressing EN1, the inventors delivered the iPeps into a panel of breast cancer cell lines expressing different amounts of EN1.
as §1

Setting [4] is: Homo sapiens, SUM149PT, 48 hours drug and 8 hours 500 nM iPep682, read-out: IC50 of drug with iPep682.
The mark [5] stands for this setting: Homo sapiens, SUM149PT, 48 hours of treatment, read-out: IC50 of drug alone.
[6] abbreviates: SUM149PT, drug treatment 72 hours, read-out: IC50 (cell viability), EN1 cDNA transduced cells.
The mark [7] stands for this setting: SUM149PT, drug treatment 72 hours, read-out: IC50 (cell viability), control transduced cells.

For `O=c1[nH]cc(F)c(=O)[nH]1` [5-FU, 5-Fluorouracil, reference compound], the values for the IC50 in the assay on SUM149PT cells (setting [4]) and in the assay on SUM149PT cells (setting [5]) were 29.5 µM and 610 µM, respectively.

For the compound `O=C(CC1NCCCC1O)Cn1cnc2cc(Br)c(Cl)cc2c1=O` (centres unmarked) [halofuginone], the IC50 turned out to be 0.00049 µM in assay [1] (SUM149PT-EN1 cells, 500 nM iPep, 48 hours, read-out: IC50 of halofuginone in combination with iPep624) and 0.041 nM in assay [2] (SUM149PT-Control cells, 500 nM iPep, 48 hours, read-out: IC50 of halofuginone in combination with iPep624). Moreover, the “breast cancer cell death” value with SUM149PT cells (SUM149PT, single agent) is given as “induced very potent breast cancer cell death”.

With `C=C(C)[C@H]1Cc2c(ccc3c2O[C@@H]2COc4cc(OC)c(OC)cc4[C@@H]2C3=O)O1` [rotenone], the figures for the IC50 in assay [1] (setting [6]) and in assay [2] (setting [7]) were 19.6 µM and 1080 nM, respectively.

In the case of `CC(=O)O[C@H]1C(=O)[C@@]2(C)[C@H]([C@H](OC(=O)c3ccccc3)[C@]3(O)C[C@H](OC(=O)[C@H](O)[C@@H](NC(=O)c4ccccc4)c4ccccc4)C(C)=C1C3(C)C)[C@]1(OC(C)=O)CO[C@@H]1C[C@@H]2O` [taxol, reference compound], the IC50 in assay [1] (setting [6]) came to 47.8 µM; in assay [2] (setting [7]) it was 7240 nM; with SUM149PT cells (setting [4]), 0.049 µM; in the assay with SUM149PT cells (setting [5]), 7.6 µM.

KKKRKVPLVWPAWVYCTRYSDRPS [iPep682] came in with an IC50 in the assay with SUM149PT cells (8 h) of 12.5 µM.

As to “KKKRKVTDSQQPLVAPAWVYCTRYSDRPS (SEQ ID NO: 20) (engineered from homo sapiens) [iPep624W1ΔA, first tryptophan mutated to alanine]”, the “activity / IC50 as compared with the wt iPep624” value in the assay with SUM149PT cells (SUM149PT) is recorded as “retained activity but significantly increased the IC50”.

As to “KKKRKVTDSQQPLVGAAGAGCTRYSDRPS (SEQ ID NO: 18) (engineered from homo sapiens) [iPep624ΔHEX]”, the cell viability result in the assay on SUM149PT cells (SUM149PT, 0-100 μM peptide, 8 hours) is “did not show significant changes in cell viability”. Moreover, in assay [3], the “cell viability of any of the breast cancer cell lines” value is reported as “did not significantly affect cell viability”.

Regarding “KKKRKVTDSQQPLVWPAAVYCTRYSDRPS (SEQ ID NO: 19) (engineered from homo sapiens) [iPep624W2ΔA, second tryptophan mutated to alanine]”, the “activity / IC50 as compared with the wt iPep624” value with SUM149PT cells (SUM149PT) is on record as “retained activity but significantly increased the IC50”.

Consider “KKKRKVWPAWVYCTRYSDR (SEQ ID NO: 22) (homo sapiens) [iPep697, peptide lacking all the N-terminal residues upstream of the hexamotif]”, for which, in the assay with SUM149PT cells (SUM149PT), the “activity / IC50 as compared with the wt iPep624” value is on record as “less active”.
